A compilation of properties of binary mixtures (doi:10.1007/s10953-016-0490-x)

Experiment: xn = mol fraction of the nth substance listed
Conditions: 100 kPa

CCCC[n+]1ccn(C)c1.O=S(=O)([O-])C(F)(F)F + CCOC(C)=O
Conditions | speed of sound [m/s] | viscosity [mPa·s]
298.15 K, x1 = 0.0991 | 1172.2 | 1.27
298.15 K, x1 = 0.1916 | 1209.8 | 4.59
298.15 K, x1 = 0.3056 | 1252.1 | 10.8
298.15 K, x1 = 0.3978 | 1279.4 | 16
298.15 K, x1 = 0.5067 | 1310.3 | 22
298.15 K, x1 = 0.7138 | 1361.8 | 35
298.15 K, x1 = 0.7987 | 1374.2 | 41.8
298.15 K, x1 = 1 | 1393.2 | 82
303.15 K, x1 = 0.0991 | 1153.5 | 0.99
303.15 K, x1 = 0.1916 | 1191.9 | 3.76
303.15 K, x1 = 0.3056 | 1236.1 | 9
303.15 K, x1 = 0.5067 | 1296.5 | 18.5
303.15 K, x1 = 0.6095 | 1324.9 | 23.6
303.15 K, x1 = 0.7138 | 1349.9 | 29.1
303.15 K, x1 = 0.7987 | 1362.1 | 34.7
303.15 K, x1 = 0.8932 | 1371.6 | 44.9
308.15 K, x1 = 0.0991 | 1132.8 | 0.89
308.15 K, x1 = 0.1916 | 1174 | 3.12
308.15 K, x1 = 0.3056 | 1220.2 | 7.3
308.15 K, x1 = 0.3978 | 1251.5 | 10.8
308.15 K, x1 = 0.5067 | 1282.6 | 15.1
308.15 K, x1 = 0.6095 | 1312.1 | 19.6
308.15 K, x1 = 0.7138 | 1338.2 | 24.6
308.15 K, x1 = 0.7987 | 1351 | 29.1
308.15 K, x1 = 0.8932 | 1359.7 | 37.1
308.15 K, x1 = 1 | 1371.7 | 53
313.15 K, x1 = 0.1916 | 1156.4 | 2.89
313.15 K, x1 = 0.3056 | 1204.4 | 6.6
313.15 K, x1 = 0.3978 | 1237.6 | 9.8
313.15 K, x1 = 0.5067 | 1268.7 | 13.5
313.15 K, x1 = 0.6095 | 1300.4 | 17.1
313.15 K, x1 = 0.7138 | 1326.8 | 20.9
313.15 K, x1 = 0.7987 | 1338.3 | 24.6
313.15 K, x1 = 0.8932 | 1349.5 | 31
318.15 K, x1 = 0.0991 | 1091.7 | 0.79
318.15 K, x1 = 0.3056 | 1188.6 | 5.8
318.15 K, x1 = 0.3978 | 1223.7 | 8.5
318.15 K, x1 = 0.5067 | 1254 | 11.7
318.15 K, x1 = 0.6095 | 1288 | 14.8
318.15 K, x1 = 0.7138 | 1314.3 | 18
318.15 K, x1 = 0.7987 | 1326.4 | 21.1
318.15 K, x1 = 0.8932 | 1337.3 | 26.2
323.15 K, x1 = 0.0991 | 1071.3 | 0.75
323.15 K, x1 = 0.1916 | 1120.7 | 2.26
323.15 K, x1 = 0.3056 | 1172.8 | 5
323.15 K, x1 = 0.3978 | 1210.9 | 7.2
323.15 K, x1 = 0.5067 | 1240.3 | 9.9
323.15 K, x1 = 0.6095 | 1274.9 | 12.9
323.15 K, x1 = 0.7138 | 1303.2 | 15.6
323.15 K, x1 = 1 | 1338.8 | 30.6

CCOC(C)=O + CCCC[n+]1ccn(C)c1.O=S(=O)([O-])C(F)(F)F
x2 = 0
Conditions | speed of sound [m/s] | viscosity [mPa·s]
303.15 K | 1118.3 | 0.4
308.15 K | 1096 | 0.37
313.15 K | 1073.7 | 0.35
318.15 K | 1051.7 | 0.34
323.15 K | 1029.5 | 0.33
